From patent US7488716B2 (priority 2001, dated 2009)
Where a SMILES comes first, the peptide text is derived from it. Where no end group is shown, it is not given here. The star is where a group is joined. PEG 22kD = 22 kDa polyethylene glycol (on cysteine); Palmitoyl = CCCCCCCCCCCCCCCC(=O)*

Assays:
GLP-1 receptor [1] = molecular target: T1, GLP-1 receptor (Rattus norvegicus, UniProt P32301); assay: Competitive binding of peptide to the GLP-1 receptor in RINm5F cell plasma membranes (125I GLP-1); details: read-out: GLP1 RIN IC50
T1 construct: endogenous in cells; host or cells: RINm5F cells
T1 sequence (P32301 22-463): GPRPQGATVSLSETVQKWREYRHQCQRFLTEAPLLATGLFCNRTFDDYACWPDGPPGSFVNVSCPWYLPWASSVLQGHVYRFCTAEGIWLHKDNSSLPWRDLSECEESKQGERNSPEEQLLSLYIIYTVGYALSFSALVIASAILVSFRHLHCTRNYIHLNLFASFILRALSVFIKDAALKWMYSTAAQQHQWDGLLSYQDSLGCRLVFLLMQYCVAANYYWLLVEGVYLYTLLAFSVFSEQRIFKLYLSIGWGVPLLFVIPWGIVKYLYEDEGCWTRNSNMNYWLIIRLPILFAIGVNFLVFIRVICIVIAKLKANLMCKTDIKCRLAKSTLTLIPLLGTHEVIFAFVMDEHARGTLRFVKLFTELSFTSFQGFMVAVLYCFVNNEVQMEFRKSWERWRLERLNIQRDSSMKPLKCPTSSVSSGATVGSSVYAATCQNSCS
Procedure: Flasks of RINm5F cells were washed with PBS, scraped in 20 mM Hepes-1 mM EDTA-250 mM sucrose buffer containing protease inhibitors (HES) and homogenized in a dounce homogenizer followed by repeated resuspension through a 23 gauge needle. Unbroken cells and nuclei were removed by centrifugation at 500×g for 5 minutes. The pellet was resuspended in HES buffer using a 23 gauge needle and the centrifugation was repeated. The supernatants from the two spins were combined and centrifuged at 40,000×g for 20 min. The resulting plasma membrane pellet was resuspended in HES buffer using a 23 gauge needle followed by a 25 gauge needle. Membranes were stored at −80° C. until use.
(§1) Competitive binding of some polypeptides of the invention to RINm5F cell plasma membranes was measured as follows. Ninety-six-well GF/C filtration plates (Millipore, Bedford, Mass.) were blocked with 0.3% PEI for at least one hour and washed twice with binding buffer consisting of 20 mM Tris, 2 mM EDTA, pH 7.5, 1 mg/ml BSA, and 1 mg/ml bacitracin. […] The plates were dried, scintillant was added to each well, and cpm per well determined using a Wallac Microbeta counter.

GLP-1 receptor [2] = molecular target: T1, GLP-1 receptor; assay: Peptide signaling through GLP-1 receptor, cAMP scintillation proximity assay in RINm5F cells; type: cell-based; details: for GLP1 Relative Potency: EC50 of native GLP-1 (7-36) divided by EC50 of polypeptide x 100, cAMP in RINm5F cells; for Emax: RIN-m5F, read-out: % GLP1 max; for % GLP1 max: maximal cAMP activity relative to native GLP-1 (7-36), RINm5F cells
Procedure: The media was removed and the cells were washed twice with PBS. […] For assay of peptides conjugated with fatty acid, the BSA was omitted from the incubation buffer. The incubation buffer was removed, and the cells were lysed in the lysis reagent provided with the cAMP Scintillation Proximity Assay (SPA) direct screening assay system (Amersham Pharmacia Biotech Inc, Piscataway, N.J.). The amount of cAMP (in pmol) present in the lysates was determined following instructions provided with this kit.
The amount of cAMP (in pmol) produced at each concentration of peptide was plotted and analyzed by nonlinear regression using Prizm software to determine the EC50 for each peptide.

glucagon receptor = molecular target: T2, glucagon receptor (Rattus norvegicus, UniProt P30082); assay: Competitive binding of peptide to the glucagon receptor in rat liver plasma membranes (125I glucagon)
T2 construct: glucagon receptor present in the plasma membranes isolated from rat liver; from tissue; host or cells: rat liver plasma membranes
T2 sequence (P30082 27-485): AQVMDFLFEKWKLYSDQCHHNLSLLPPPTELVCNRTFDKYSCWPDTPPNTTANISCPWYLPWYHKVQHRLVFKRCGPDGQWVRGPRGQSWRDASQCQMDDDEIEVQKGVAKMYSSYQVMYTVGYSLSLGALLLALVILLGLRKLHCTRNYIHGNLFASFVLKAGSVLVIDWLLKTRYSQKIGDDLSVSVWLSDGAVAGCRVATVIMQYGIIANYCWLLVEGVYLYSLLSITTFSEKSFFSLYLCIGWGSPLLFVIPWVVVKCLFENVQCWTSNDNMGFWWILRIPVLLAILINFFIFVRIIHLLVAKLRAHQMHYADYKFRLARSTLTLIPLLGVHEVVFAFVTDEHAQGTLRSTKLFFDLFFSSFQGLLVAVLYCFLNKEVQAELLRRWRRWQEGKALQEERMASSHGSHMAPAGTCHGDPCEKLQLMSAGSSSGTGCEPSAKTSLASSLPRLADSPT
Procedure: The wet weight of the livers was determined and the tissue minced in 5 volumes of ice cold TES buffer and a slurry prepared using a polytron. All buffers and spins were kept at 4° C. The slurry was further homogenized using three strokes of a handheld dounce homogenizer. The homogenate was passed through several layers of cheesecloth and spun at 25,000×g for 10 minutes. Pellets were homogenized in 22.1 ml TES buffer using 10 strokes of a handheld dounce homogenizer. Twenty-seven point nine milliliters of 2.4 M sucrose in TE was added and mixed well. The homogenate was distributed among several tubes, and each tube was overlaid with 7 ml of TES buffer. The tubes were spun at 120,000×g for 60 minutes. The plasma membranes were removed from the interface that formed during the spin, diluted in TES and concentrated using a 15 minute spin at 200,000×g. The resulting pellet was again homogenized in 9.8 ml TES buffer, combined with 10.3 ml 2.4M sucrose, overlaid with 7 ml TES, and centrifuged at 180,000×g for 30 min. […] The final pellet was resuspended in TES. Plasma membranes were stored at −80° C. until ready for use.
as §1, with “rat liver” for “RINm5F cell”, “0.1%” for “0.3%”

[3] = Intraperitoneal glucose tolerance testing (IPGTT) in rats or mice; type: in vivo; details: ipGTT in mice 3 hours post dosing with 100 μg/kg peptide
Procedure: Blood glucose levels during intraperitoneal glucose tolerance testing in rats or mice by some polypeptides of the invention were measured as follows. The in vivo activity of the polypeptides of the invention when administered subcutaneously was examined in rats or mice. Rats or mice fasted overnight were given a subcutaneous injection of control or peptide (100 μg/kg). Basal blood glucose was measured prior to administration of peptides or three or 17 hours after administration of derivatized peptides, and the rats or mice were given 2 g/kg of glucose intraperitoneally. Blood glucose was measured again after 15, 30 and 60 minutes in rats or 30 and 60 minutes in mice.

Row | IC50 (GLP-1 receptor [1]) [nM] | GLP1 Relative Potency (GLP-1 receptor [2]) [%] | Emax (GLP-1 receptor [2]) [%] | IC50 (glucagon receptor) [nM] | % GLP1 max (GLP-1 receptor [2]) [%] | Compound | In vivo Decrease IpGTT AUC [3] [%]
1 | 5.8 | 4.3 | 93.3 | 25.6 | – | HSQGTFTSDYAKYLDARRACEFIAWLVKGRG [G71] | –
2 | 9.8 | 18.6 | 116 | 139 | – | HSQGTFTSDYARYLDARRAKEFIAWLVKGR-NH2 [G55] | –
3 | 1.5 | 64.5 | 95.8 | 16.1 | – | HSQGTFTSDYARYLDARRAREFIAWLVRGRGK [G85] | –
4 | 4.4 | 8.4 | 88.7 | 21.7 | – | HSQGTFTSDYAKYLDARRAKEFIAWLVCGRG [G74] | –
5 | 7.7 | 6.6 | 86.1 | 54 | – | HSQGTFTSDYAKYLDARRAKEFIAWLVKCRG [G75] | –
6 | 6 | 6.9 | 112 | 6.6 | – | CC(C)C[C@H](NC(=O)[C@H](Cc1ccc(O)cc1)NC(=O)[C@H](CCCCN)NC(=O)[C@H](CO)NC(=O)[C@H](Cc1ccc(O)cc1)NC(=O)[C@H](CC(=O)O)NC(=O)[C@H](CO)NC(=O)[C@@H](NC(=O)[C@H](Cc1ccccc1)NC(=O)[C@@H](NC(=O)CNC(=O)[C@H](CCC(N)=O)NC(=O)[C@H](CO)NC(=O)[C@@H](N)Cc1c[nH]cn1)[C@@H](C)O)[C@@H](C)O)C(=O)N[C@@H](CC(=O)O)C(=O)N[C@@H](CO)C(=O)N[C@@H](CCCNC(=N)N)C(=O)N[C@@H](CCCNC(=N)N)C(=O)N[C@@H](C)C(=O)N[C@@H](CCC(N)=O)C(=O)N[C@@H](CC(=O)O)C(=O)N[C@@H](Cc1ccccc1)C(=O)N[C@H](C(=O)N[C@@H](CCC(N)=O)C(=O)N[C@@H](Cc1c[nH]c2ccccc12)C(=O)N[C@@H](CC(C)C)C(=O)N[C@H](C(=O)N[C@@H](CCCCN)C(=O)NCC(=O)N[C@@H](CCCNC(=N)N)C(N)=O)C(C)C)C(C)C [G1] | –
7 | 6.9 | 76.1 | 99 | 163 | – | HSQGTFTSDYAKYLDAKKAKEFIAWLVKGRG [G58] | –
8 | 14.7 | 18.3 | 132 | 178 | – | HSQGTFTSDYAKYLDAARAKEFIAWLVKGR-NH2 [G57] | –
9 | 8.1 | 29.9 | 97.1 | 33.6 | – | HSQGTFTSDYARYLDARRAKEFIAWLVRGRG [G82] | –
10 | – | 6.2 | – | – | 112.7 | HSQGTFTSDYARYLDARRAREFIKWLVRGRC(22kD) (HSQGTFTSDYARYLDARRAREFIKWLVRGRC(PEG 22kD); listed as Homo sapiens) [G2185, 22kD PEG linked to the cysteine residue] | 44
11 | – | 1.8 | – | – | 93.7 | HSQGTFTSDYAKYLDARRAKEFIAWLVKGRC(22kD) (HSQGTFTSDYAKYLDARRAKEFIAWLVKGRC(PEG 22kD); listed as Homo sapiens) [G277, 22kD PEG linked to the cysteine residue] | 46
12 | 13.8 | 22.3 | 95.7 | 682 | – | HSQGTFTSDYAKYLDAAKAKEFIAWLVKGRG [G60] | –
13 | 10.2 | 7.7 | 85 | 59.1 | – | HSQGTFTSDYAKYLDARRAKEFIAWLVKGCG [G76] | –
14 | 2.1 | 22.7 | 102 | 97.5 | – | HSQGTFTSDYARYLDAKKAKEFIAWLVKGRG [G59] | –
15 | 8.9 | 9.5 | 92.1 | 61.1 | – | HSQGTFTSDYAKYLDARRAKEFIAWLVKGRC [G77] | –
16 | 0.5 | 69.9 | 109 | 243 | – | HSQGTFTSDYSKYLEGQAAKEFIAWLVKGR-NH2 [G5] | –
17 | 8.2 | 58.1 | 91.2 | 154 | – | HSQGTFTSDYAKYLDARRAKEFIAWLVKGRG [G51] | –
18 | 3.2 | 29.9 | 89.4 | 28.6 | – | HSQGTFTSDYARYLDARRAREFIKWLVRGRG [G83] | –
19 | 6.6 | 37.2 | 115 | 125 | – | HSQGTFTSDYAAYLDARRAKEFIAWLVKGR-NH2 [G56] | –
20 | – | 0.6 | 90.5 | – | – | CCCCCCCCCCCCCCCC(=O)NCCCC[C@H](NC(=O)[C@H](C)NC(=O)[C@H](CCCNC(=N)N)NC(=O)[C@H](CCCNC(=N)N)NC(=O)[C@H](C)NC(=O)[C@H](CC(=O)O)NC(=O)[C@H](CC(C)C)NC(=O)[C@H](Cc1ccc(O)cc1)NC(=O)[C@H](CCCNC(=N)N)NC(=O)[C@H](C)NC(=O)[C@H](Cc1ccc(O)cc1)NC(=O)[C@H](CC(=O)O)NC(=O)[C@H](CO)NC(=O)[C@@H](NC(=O)[C@H](Cc1ccccc1)NC(=O)[C@@H](NC(=O)CNC(=O)[C@H](CCC(N)=O)NC(=O)[C@H](CO)NC(=O)[C@@H](N)Cc1c[nH]cn1)[C@@H](C)O)[C@@H](C)O)C(=O)N[C@@H](CCC(=O)O)C(=O)N[C@@H](Cc1ccccc1)C(=O)N[C@H](C(=O)N[C@@H](CCCCN)C(=O)N[C@@H](Cc1c[nH]c2ccccc12)C(=O)N[C@@H](CC(C)C)C(=O)N[C@H](C(=O)N[C@@H](CCCNC(=N)N)C(=O)NCC(=O)N[C@@H](CCCNC(=N)N)C(=O)NCC(=O)O)C(C)C)[C@@H](C)CC [G183] (H-HSQGTFTSDYARYLDARRAK(Palmitoyl)EFIKWLVRGRG-OH; N-terminus and C-terminus assumed) | 27
21 | 1.4 | 61.8 | 114 | 11.7 | – | HSQGTFTSDYARYLDARRAREFIAWLVKGRG [G84] | –
22 | 10.6 | 12.1 | 96 | 232 | – | HSQGTFTSDYARYLDAAKAKEFIAWLVKGRG [G61] | –
23 | 4.5 | 13.0 | 104 | 48 | – | HSQGTFTSDYARYLDARRAREFIKWLVRGRC [G185] | –
